In ChEMBL document CHEMBL3885861, “Open TG-GATES”:

Species: Rattus norvegicus
Experiment: Open TG-GATES - Regimen: Single
Format: toxicity, organism-based, Sprague-Dawley
Design: regimen Single, gender Male, age 6 weeks
Conditions: in vivo, po, 0 mg/kg, route gavage, dose level Control; for APTT / Bas / Eos / Fbg / Hb / Ht / Lym / MCH / MCHC / MCV / Mono / Neu / PT / Plat / RBC / Ret / WBC: tissue Blood; for KIDNEY_L / KIDNEY_R / KIDNEY_TOTAL: tissue Kidney; for LIVER: tissue Liver; for A/G / ALP / ALT / AST / BUN / CRE / Ca / Cl / DBIL / GLC / IP / K / LDH / Na / PL / RALB / TBIL / TC / TG / TP / gamma-GTP: tissue Plasma

## C[C@](N)(Cc1ccc(O)c(O)c1)C(=O)O [METHYLDOPA]
3 h
  TERMINAL_BW: 189.8 g
  APTT: 16.9 s
  Bas: 0%
  Eos: 0.8%
  Fbg: 253.4 mg/dL
  Hb: 13.1 g/dL
  Ht: 39.1%
  Lym: 75%
  MCH: 22.2 pg
  MCHC: 33.4%
  MCV: 66.5 fL
  Mono: 3.2%
  Neu: 20.4%
  PT: 12.3 s
  Plat: 118.6 x10_4/uL
  RBC: 588.6 x10_4/ul
  Ret: 11%
  WBC: 80.9 x10_2/uL
  KIDNEY_L: 0.8 g
  KIDNEY_R: 0.8 g
  KIDNEY_TOTAL: 1.6 g
  LIVER: 8 g
  A/G: 0.9
  ALP: 1671.4 IU/L
  ALT: 54.6 IU/L
  AST: 84.8 IU/L
  BUN: 10 mg/dL
  CRE: 0.2 mg/dL
  Ca: 11.6 mg/dL
  Cl: 106.8 meq/L
  DBIL: 0.022 mg/dL
  GLC: 164.4 mg/dL
  IP: 9.4 mg/dL
  K: 4.6 meq/L
  LDH: 61.2 IU/L
  Na: 141.8 meq/L
  PL: 147.2 mg/dL
  RALB: 2.6 g/dL
  TBIL: 0.08 mg/dL
  TC: 88 mg/dL
  TG: 68.4 mg/dL
  TP: 5.6 g/dL
  gamma-GTP: 1.2 IU/L
6 h
  TERMINAL_BW: 187.9 g
  APTT: 17 s
  Bas: 0%
  Eos: 1%
  Fbg: 266.8 mg/dL
  Hb: 13.4 g/dL
  Ht: 40.1%
  Lym: 70.4%
  MCH: 21.6 pg
  MCHC: 33.5%
  MCV: 64.5 fL
  Mono: 3.8%
  Neu: 24.4%
  PT: 12.4 s
  Plat: 120.7 x10_4/uL
  RBC: 622.2 x10_4/ul
  Ret: 9.7%
  WBC: 82.2 x10_2/uL
  KIDNEY_L: 0.8 g
  KIDNEY_R: 0.8 g
  KIDNEY_TOTAL: 1.6 g
  LIVER: 7.3 g
  A/G: 0.9
  ALP: 1652.4 IU/L
  ALT: 45.8 IU/L
  AST: 74 IU/L
  BUN: 8.4 mg/dL
  CRE: 0.2 mg/dL
  Ca: 11.2 mg/dL
  Cl: 109 meq/L
  DBIL: 0.014 mg/dL
  GLC: 177.6 mg/dL
  IP: 10.6 mg/dL
  K: 4.6 meq/L
  LDH: 54.2 IU/L
  Na: 143.4 meq/L
  PL: 128.4 mg/dL
  RALB: 2.6 g/dL
  TBIL: 0.076 mg/dL
  TC: 81.2 mg/dL
  TG: 43 mg/dL
  TP: 5.6 g/dL
  gamma-GTP: 1.2 IU/L
9 h
  TERMINAL_BW: 189.5 g
  APTT: 17.4 s
  Bas: 0%
  Eos: 1%
  Fbg: 242 mg/dL
  Hb: 12.7 g/dL
  Ht: 37.7%
  Lym: 75.4%
  MCH: 21.7 pg
  MCHC: 33.7%
  MCV: 64.2 fL
  Mono: 2.4%
  Neu: 20.8%
  PT: 13.6 s
  Plat: 112.1 x10_4/uL
  RBC: 588.8 x10_4/ul
  Ret: 10.4%
  WBC: 74.2 x10_2/uL
  KIDNEY_L: 0.8 g
  KIDNEY_R: 0.8 g
  KIDNEY_TOTAL: 1.7 g
  LIVER: 6.9 g
  A/G: 0.9
  ALP: 1737.2 IU/L
  ALT: 44.4 IU/L
  AST: 77.2 IU/L
  BUN: 10.2 mg/dL
  CRE: 0.1 mg/dL
  Ca: 10.9 mg/dL
  Cl: 108.2 meq/L
  DBIL: 0.014 mg/dL
  GLC: 182.6 mg/dL
  IP: 11 mg/dL
  K: 4.4 meq/L
  LDH: 88 IU/L
  Na: 143.2 meq/L
  PL: 114.8 mg/dL
  RALB: 2.4 g/dL
  TBIL: 0.076 mg/dL
  TC: 74.4 mg/dL
  TG: 30.6 mg/dL
  TP: 5.1 g/dL
  gamma-GTP: 1.2 IU/L
24 h
  TERMINAL_BW: 194.8 g
  APTT: 17 s
  Bas: 0%
  Eos: 1%
  Fbg: 237.6 mg/dL
  Hb: 13 g/dL
  Ht: 38.2%
  Lym: 75.8%
  MCH: 22 pg
  MCHC: 34.1%
  MCV: 64.4 fL
  Mono: 3.4%
  Neu: 19.4%
  PT: 12.8 s
  Plat: 113.1 x10_4/uL
  RBC: 594.4 x10_4/ul
  Ret: 9.5%
  WBC: 77.2 x10_2/uL
  KIDNEY_L: 0.9 g
  KIDNEY_R: 0.9 g
  KIDNEY_TOTAL: 1.8 g
  LIVER: 8.8 g
  A/G: 0.9
  ALP: 1858.4 IU/L
  ALT: 55.2 IU/L
  AST: 83 IU/L
  BUN: 13 mg/dL
  CRE: 0.2 mg/dL
  Ca: 11 mg/dL
  Cl: 107.2 meq/L
  DBIL: 0.008 mg/dL
  GLC: 183.6 mg/dL
  IP: 7.8 mg/dL
  K: 4.3 meq/L
  LDH: 69.8 IU/L
  Na: 142 meq/L
  PL: 128.6 mg/dL
  RALB: 2.5 g/dL
  TBIL: 0.062 mg/dL
  TC: 72.6 mg/dL
  TG: 58.2 mg/dL
  TP: 5.3 g/dL
  gamma-GTP: 1 IU/L
